Data: ChEMBL document CHEMBL1201862, “PubChem BioAssay data set” (2004)
Values joined by “and” are separate entries in the source; they are usually repeats but may differ in a detail not shown here. Equal values may be shown once.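 Tested at 5 concentrations; 48 h exposure; 96-well plates; endpoints linearly interpolated, else capped at highest concentration. The concentration for 50% growth inhibition is given as GI50.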 Active and inactive are the calls of the source. Rule as the data show it: active = GI50 up to about 1.1 µM and inactive = higher.

Legend:
Assay in all cases: NCI anticancer screen, dose series, 48 h
CCRF-CEM = system: CCRF-CEM
SK-OV-3 = system: SK-OV-3
A549 = system: A549
HOP-18 = system: HOP-18
SF-295 = system: SF-295
NCI-H23 = system: NCI-H23
K562 = system: K562
MOLT-4 = system: MOLT-4
M19-MEL = system: M19-MEL
SNB-75 = system: SNB-75
DMS-273 = system: DMS-273
CAKI-1 = system: CAKI-1
KM-20L2 = system: KM-20L2
NCI-H226 = system: NCI-H226
DMS-114 = system: DMS-114
HL-60 = system: HL-60
NCI/ADR-RES = system: NCI/ADR-RES
MCF7 = system: MCF7
IGROV-1 = system: IGROV-1
Hs-578T = system: Hs-578T
HCC 2998 = system: HCC 2998
DLD-1 = system: DLD-1
BT-549 = system: BT-549
MDA-N = system: MDA-N
SNB-19 = system: SNB-19
OVCAR-8 = system: OVCAR-8
HT-29 = system: HT-29
786-0 = system: 786-0
LXFL 529 = system: LXFL 529
LOX IMVI = system: LOX IMVI
ACHN = system: ACHN
SR = system: SR
MDA-MB-231 = system: MDA-MB-231
SF-539 = system: SF-539
U-251 = system: U-251
DU-145 = system: DU-145
PC-3 = system: PC-3
SK-MEL-5 = system: SK-MEL-5
NCI-H522 = system: NCI-H522
HCT-116 = system: HCT-116
NCI-H460 = system: NCI-H460
HCT-15 = system: HCT-15
M14 = system: M14
XF498 = system: XF498
RPMI-8226 = system: RPMI-8226
MDA-MB-435 = system: MDA-MB-435
SK-MEL-2 = system: SK-MEL-2
UACC-257 = system: UACC-257
HOP-92 = system: HOP-92
SF-268 = system: SF-268
Malme-3M = system: Malme-3M
TK-10 = system: TK-10
COLO 205 = system: COLO 205
SW-620 = system: SW-620
SN12C = system: SN12C
UACC-62 = system: UACC-62
SK-MEL-28 = system: SK-MEL-28
KM12 = system: KM12
OVCAR-3 = system: OVCAR-3
OVCAR-5 = system: OVCAR-5
OVCAR-4 = system: OVCAR-4
UO-31 = system: UO-31
HOP-62 = system: HOP-62
EKVX = system: EKVX
RXF 393 = system: RXF 393
SNB-78 = system: SNB-78

O=C(O)/C=C/c1c[nH]c(=O)[nH]c1=O
GI50 (CCRF-CEM): > 316 µM (inactive) | GI50 (SK-OV-3): > 500 µM (inactive) | GI50 (A549): > 500 µM (inactive) | GI50 (HOP-18): > 500 µM (inactive) | GI50 (SF-295): > 232 µM (inactive) | GI50 (NCI-H23): > 500 µM (inactive) | GI50 (K562): > 500 µM (inactive) | GI50 (MOLT-4): > 281 µM (inactive) | GI50 (M19-MEL): > 500 µM (inactive) | GI50 (SNB-75): > 500 µM (inactive) | GI50 (DMS-273): > 500 µM (inactive) | GI50 (CAKI-1): > 500 µM (inactive) | GI50 (KM-20L2): > 500 µM (inactive) | GI50 (NCI-H226): 489 µM (inactive) | GI50 (DMS-114): > 500 µM (inactive) | GI50 (HL-60): > 446 µM (inactive) | GI50 (NCI/ADR-RES): > 344 µM (inactive) | GI50 (MCF7): > 500 µM (inactive)

Nc1nc(N)c2nc(CNc3ccc(C(=O)NC(CCCNC(=O)c4ccccc4C(=O)O)C(=O)O)cc3)cnc2n1 (stereo not drawn)
GI50 (IGROV-1): < 0.01 µM (active) | GI50 (Hs-578T): > 100 µM (inactive) | GI50 (HCC 2998): < 0.01 µM (active) | GI50 (A549): < 0.01 µM (active) | GI50 (DLD-1): < 0.01 µM (active) | GI50 (NCI-H23): < 0.01 µM (active) | GI50 (MOLT-4): < 19.4 nM (active) and < 10 nM (active) | GI50 (BT-549): 6.18 µM (inactive) | GI50 (MDA-N): 10 nM (active) | GI50 (SNB-19): < 20.2 nM (active) and 21.6 nM (active) | GI50 (OVCAR-8): < 0.01 µM (active) | GI50 (HT-29): < 0.01 µM (active) | GI50 (786-0): 0.01 µM (active) | GI50 (DMS-273): 0.01 µM (active) | GI50 (LXFL 529): 0.000762 µM (active) | GI50 (LOX IMVI): < 0.01 µM (active) | GI50 (ACHN): 0.01 µM (active) | GI50 (SR): 0.01 µM (active) | GI50 (MDA-MB-231): > 100 µM (inactive) | GI50 (SF-539): < 0.01 µM (active) | GI50 (U-251): < 10 nM (active) and 14.3 nM (active) | GI50 (CAKI-1): 0.01 µM (active) | GI50 (DU-145): 10 nM (active) | GI50 (KM-20L2): 0.00875 µM (active) | GI50 (PC-3): 10 nM (active) | GI50 (SK-MEL-5): 10 nM (active) and < 18.4 nM (active) | GI50 (NCI-H522): < 0.01 µM (active) | GI50 (HCT-116): < 0.215 µM (active) | GI50 (NCI-H460): < 0.01 µM (active) | GI50 (HCT-15): 10 nM | GI50 (M14): 0.01 µM (active) | GI50 (XF498): > 100 µM (inactive) | GI50 (RPMI-8226): < 0.01 µM (active) | GI50 (HL-60): < 0.01 µM (active) | GI50 (MDA-MB-435): 3.11 nM (active) | GI50 (MCF7): 0.01 µM (active)

O=C(CO)CC(=O)C(=O)Nc1cccc(C(F)(F)F)c1
GI50 (IGROV-1): > 100 µM (inactive) | GI50 (HCC 2998): > 100 µM (inactive) | GI50 (SK-MEL-2): > 100 µM (inactive) | GI50 (SK-OV-3): > 100 µM (inactive) | GI50 (UACC-257): > 100 µM (inactive) | GI50 (HOP-92): > 100 µM (inactive) | GI50 (A549): > 100 µM (inactive) | GI50 (SF-268): > 100 µM (inactive) | GI50 (SF-295): > 100 µM (inactive) | GI50 (Malme-3M): > 100 µM (inactive) | GI50 (DLD-1): > 100 µM (inactive) | GI50 (NCI-H23): > 100 µM (inactive) | GI50 (TK-10): > 100 µM (inactive) | GI50 (K562): > 100 µM (inactive) | GI50 (MOLT-4): > 100 µM (inactive) | GI50 (SNB-75): > 100 µM (inactive) | GI50 (COLO 205): > 100 µM (inactive) | GI50 (SNB-19): > 100 µM (inactive) | GI50 (OVCAR-8): > 100 µM (inactive) | GI50 (HT-29): > 100 µM (inactive) | GI50 (786-0): > 100 µM (inactive) | GI50 (SW-620): > 100 µM (inactive) | GI50 (DMS-273): > 100 µM (inactive) | GI50 (SN12C): > 100 µM (inactive) | GI50 (LXFL 529): > 100 µM (inactive) | GI50 (LOX IMVI): > 100 µM (inactive) | GI50 (ACHN): > 100 µM (inactive) | GI50 (UACC-62): > 100 µM (inactive) | GI50 (SR): > 100 µM (inactive) | GI50 (SF-539): > 100 µM (inactive) | GI50 (CAKI-1): > 100 µM (inactive) | GI50 (KM-20L2): > 100 µM (inactive) | GI50 (NCI-H522): > 100 µM (inactive) | GI50 (HCT-116): > 100 µM (inactive) | GI50 (SK-MEL-28): > 100 µM (inactive) | GI50 (KM12): > 100 µM (inactive) | GI50 (OVCAR-3): > 100 µM (inactive) | GI50 (OVCAR-5): > 100 µM (inactive) | GI50 (OVCAR-4): > 100 µM (inactive) | GI50 (NCI-H460): > 100 µM (inactive) | GI50 (HCT-15): > 100000 nM | GI50 (M14): > 100 µM (inactive) | GI50 (XF498): > 100 µM (inactive) | GI50 (UO-31): > 100 µM (inactive) | GI50 (HOP-62): > 100 µM (inactive) | GI50 (NCI-H226): > 100 µM (inactive) | GI50 (RPMI-8226): > 100 µM (inactive) | GI50 (HL-60): > 100 µM (inactive)

N=C(c1ccccc1)N(O)C1CCCCC1
GI50 (HCC 2998): > 100 µM (inactive) | GI50 (SK-MEL-2): > 100 µM (inactive) | GI50 (UACC-257): > 100 µM (inactive) | GI50 (HOP-92): > 100 µM (inactive) | GI50 (A549): > 100 µM (inactive) | GI50 (HOP-18): > 100 µM (inactive) | GI50 (SF-268): > 100 µM (inactive) | GI50 (SF-295): > 100 µM (inactive) | GI50 (Malme-3M): 9.38 µM (inactive) | GI50 (DLD-1): > 100 µM (inactive) | GI50 (NCI-H23): > 100 µM (inactive) | GI50 (TK-10): > 100 µM (inactive) | GI50 (EKVX): > 100 µM (inactive) | GI50 (M19-MEL): > 100 µM (inactive) | GI50 (RXF 393): > 100 µM (inactive) | GI50 (SNB-75): 81.3 µM (inactive) | GI50 (COLO 205): > 100 µM (inactive) | GI50 (SNB-19): > 100 µM (inactive) | GI50 (OVCAR-8): > 100 µM (inactive) | GI50 (HT-29): > 100 µM (inactive) | GI50 (786-0): > 100 µM (inactive) | GI50 (SW-620): > 100 µM (inactive) | GI50 (DMS-273): > 100 µM (inactive) | GI50 (SN12C): > 100 µM (inactive) | GI50 (LXFL 529): > 100 µM (inactive) | GI50 (LOX IMVI): > 100 µM (inactive) | GI50 (SR): > 100 µM (inactive) | GI50 (SF-539): > 100 µM (inactive) | GI50 (U-251): > 100 µM (inactive) | GI50 (CAKI-1): > 100 µM (inactive) | GI50 (KM-20L2): > 100 µM (inactive) | GI50 (SNB-78): > 100 µM (inactive) | GI50 (SK-MEL-5): > 100 µM (inactive) | GI50 (NCI-H522): > 100 µM (inactive) | GI50 (HCT-116): > 100 µM (inactive) | GI50 (SK-MEL-28): > 100 µM (inactive) | GI50 (KM12): > 100 µM (inactive) | GI50 (OVCAR-5): > 100 µM (inactive) | GI50 (OVCAR-4): > 100 µM (inactive) | GI50 (NCI-H460): > 100 µM (inactive) | GI50 (M14): > 100 µM (inactive) | GI50 (UO-31): > 100 µM (inactive) | GI50 (HOP-62): > 100 µM (inactive) | GI50 (NCI-H226): > 100 µM (inactive) | GI50 (DMS-114): > 100 µM (inactive) | GI50 (HL-60): > 100 µM (inactive)
